Laboratory results as given in patent publication US20210070723A1, “CRYSTAL FORM OF SESQUITERPENE DERIVATIVE, PREPARATION METHOD THEREFOR AND USE THEREOF” (Nankai University, priority 2017, published 2021).
Where two headings read alike, the source gives them in different places. One block for each compound: values may come before it.

Legend:
[1] = Hygroscopicity: open weighing bottles in a constant temperature and humidity incubator, moisture absorption rate; type: physicochemical; conditions: for hygroscopicity (in words): compared with the amorphous compound of structural formula (I); for Moisture absorption rates after 1 month / Moisture absorption rates after 2 months / Moisture absorption rates after 2 weeks: 25° C., 75% humidity
Procedure: The crystal form A products prepared in example 1, example 2 and example 3 were taken and placed in weighing bottles for precision weighing. The caps of the bottles were opened, the bottles were put on an upper part of a drier and placed in a constant temperature and humidity incubator with 25° C. and 75% humidity, three parts were subjected to parallel operation, and then taken and weighed in two weeks, one month and two months respectively, and the compound amorphous powder of structural formula (I) was used as comparative example 1. Moisture absorption rate=(weight after moisture absorption - weight before moisture absorption)/weight before moisture absorption×100%.

[2] = Absorption experiment (pharmacokinetics and bioavailability) in rats; type: in vivo; conditions: Sprague Dawley, plasma, rat; for bioavailability: oral, 150 mpk
Procedure: Trial rats were Sprague Dawley rats, 7 rats in total, 1 rat was used as blank control, and blank plasma was taken to be used. 3 rats were administrated via tail intravenous injection (30 mpk), and 3 rats were orally and intragastrically administrated (150 mpk). According to the set time schedule, blood was collected from orbital vein to put in a blood collection vessel containing heparin sodium, centrifuged for 10min at 4° C. and 3500rpm, the supernatant of plasma was taken and put into EP tube, and the content of the compound of structural formula (I) in blood was detected. Bioavailability was calculated according to the following formula: bioavailability F %=(AUCpo/AUCIV)×(dose IV/dose po)×100%; Time schedule was set, as shown in Table 2. AUCpo is an area under the drug concentration-time curve under administrating oral drug, AUCIV is an area under the drug concentration-time curve under intravenous injecting drug, dose IV is the dose of the injected drug, the dose po is the dose of the oral drug, Tmax (h) is the time to reach the blood peak, T1/2 (h) is the half-life of blood concentration, and Cmax (ng/mL) is the drug peak concentration of the drug-time curve.

IPF model (bleomycin) = experiment: Animal drug effect in the bleomycin-induced IPF model, intragastric administration; type: in vivo, C57BL/6 mice; conditions: for overall effect on idiopathic pulmonary fibrosis: bleomycin mouse model, vs Pirfenidone and Nintedanib
Procedure: Trial mice were C57BL/6 mice, 35 mice in total, 7 mice in each group, including a saline group, a bleomycin group, a Nintedanib group (100 mpk), a Pirfenidone group (200 mpk) and a group (100 mpk) administrating the crystal form A of the compound of structural formula (I). On day 0, bleomycin (2U/kg) was injected using a trachea to establish an IPF model, 0-7 days were inflammation periods of mice, and 7-14 days were fibrosis lasting progressive periods of mice. Administration was conducted on the day 7, materials were taken on the day 14, the lung functions of mice were measured after mice were narcotized, then the left lungs were taken to make pathological sections, and the right lungs were used to measure hydroxyproline.

[3] = 30 mg/kg, intravenous injection (30 mpk)
[4] = 150 mg/kg, oral administration (150 mpk)

hygroscopicity (in words) [1]: obviously reduced | hygroscopicity (in words) ([1]; listed as crystal form A of the compound (I)): basically non-hygroscopic | AUC [2, 3]: 40.6 µg·h/mL | Cmax [2, 3]: 21300 ng/mL | Tmax [2, 3]: 0.11 h | half-life [2, 3]: 1.35 h | AUC [2, 4]: 174 µg·h/mL | Cmax [2, 4]: 56300 ng/mL | Tmax [2, 4]: 0.67 h | half-life [2, 4]: 1.91 h | bioavailability ([2]; po 150 mpk vs iv 30 mpk, read-out: bioavailability): 85.8%
Compound: CN(C)C[C@@H]1C(=O)O[C@@H]2C[C@@]3(C)CC[C@@H](O)[C@]4(CO4)[C@@H]3C[C@H]12.O=C(O)CCC(=O)O
pathological sections (area of pulmonary fibrosis focus, alveolar structure) (IPF model (bleomycin); 100 mpk, administration from day 7, left lung taken on day 14): can obviously reduce the area of pulmonary fibrosis focus and normalize the alveolar structure | forced vital capacity (FVC) (IPF model (bleomycin); 100 mpk, day 14): can significantly improve the FVC of mice | pulmonary fibrosis area (fibrotic percentage) (IPF model (bleomycin); 100 mpk, day 14, vs Nintedanib (100 mpk) and Pirfenidone (200 mpk)): superior to the positive drugs | expression of hydroxyproline (content of collagen in the lungs) (IPF model (bleomycin); 100 mpk, right lung, day 14): can significantly reduce the content of collagen in the lungs | overall effect on idiopathic pulmonary fibrosis (IPF model (bleomycin)): can significantly alleviate idiopathic pulmonary fibrosis

Moisture absorption rates after 1 month [1]: 2.7% | Moisture absorption rates after 2 months [1]: 3.2% | Moisture absorption rates after 2 weeks [1]: 1.4% | bioavailability ([2]; crystal form A prepared by the methods in example 1 and example 3, read-out: bioavailabilities): > 85.5%
Compound: CN(C)C[C@@H]1C(=O)O[C@@H]2C[C@@]3(C)CC[C@@H](O)[C@]4(CO4)[C@@H]3C[C@H]12.O=C(O)CCC(=O)O [Example 1]
overall effect on idiopathic pulmonary fibrosis (IPF model (bleomycin)): can significantly alleviate idiopathic pulmonary fibrosis

Moisture absorption rates after 1 month [1]: 3.8% | Moisture absorption rates after 2 months [1]: 3.1% | Moisture absorption rates after 2 weeks [1]: 1.9%
Compound: CN(C)C[C@@H]1C(=O)O[C@@H]2C[C@@]3(C)CC[C@@H](O)[C@]4(CO4)[C@@H]3C[C@H]12.O=C(O)CCC(=O)O [Example 2]

Moisture absorption rates after 1 month [1]: 2.2% | Moisture absorption rates after 2 months [1]: 2.8% | Moisture absorption rates after 2 weeks [1]: 1.6%
Compound: CN(C)C[C@@H]1C(=O)O[C@@H]2C[C@@]3(C)CC[C@@H](O)[C@]4(CO4)[C@@H]3C[C@H]12.O=C(O)CCC(=O)O [Example 3]
overall effect on idiopathic pulmonary fibrosis (IPF model (bleomycin)): can significantly alleviate idiopathic pulmonary fibrosis

Moisture absorption rates after 1 month [1]: 12.7% | Moisture absorption rates after 2 months [1]: 22.6% | Moisture absorption rates after 2 weeks [1]: 8.1%
Compound: CN(C)C[C@@H]1C(=O)O[C@@H]2C[C@@]3(C)CC[C@@H](O)[C@]4(CO4)[C@@H]3C[C@H]12.O=C(O)CCC(=O)O [compound 1]
